The record followed here is patent EP4653451A1, “POLYPEPTIDE COMPOUND AND USE THEREOF” (Chengdu New Radiomedicine Technology Co., Ltd., priority 2023, dated 2024).

For data set [1], the target named is T1, human recombinant DPP4 protein (Homo sapiens, UniProt P27487).
T1 construct: purchased Acrobiosystems DP4-H5211
As to the kind of experiment: Inhibitory activity against DPP4 protease activity (H-Gly-Pro-AMC fluorescence). The settings on record: 125 pM DPP4 working solution, 90 min at room temperature. In kind it is biochemical. On the procedure:
The human recombinant DPP4 protein (Acrobiosystems, DP4-H5211) was formulated into a 125 pM working solution with an assay buffer (20 mM Tris-HCl, 100 mM NaCl), and the DPP4 substrate (H-Gly-Pro-AMC.HBr (LEONBIO, 115035-46-6)) was diluted to a 250 µM DPP4 substrate working solution with the assay buffer. 40 µl of DPP4 working solution and 20 µl of compounds at different concentrations (4-fold dilution) were taken, then 40 µl of DPP4 substrate working solution was added, and the mixture was uniformly mixed on a shaker at room temperature for 1 min. The uniformly mixed mixture was reacted at room temperature in the dark for 90 min. Reading was made by microplate reader at excitation and emission wavelengths of 380 nm and 460 nm. The original data was saved, and the IC50 value of the compound was obtained by analyzing the data with Graphpad PRISM.

Data set [2] in a line: in vitro. The settings on record: CD-1, mouse, plasma.
Protocol: The plasma stability experiment was performed using plasma from CD-1 mice. The compounds were diluted to a concentration of 1 mM with methanol. To 0.792 mL of plasma, 8.00 µL of 1 mM of each test compound was added, and 50.0 µL of the plasma sample was taken after uniform mixing. The remaining sample was placed in a 37°C water bath and incubated for 24 h. […] After centrifugation, the sample was diluted 1-fold with 0.2% trifluoroacetic acid and analyzed by LC-MS/MS.
The target in data set [3] is T2, human recombinant FAP protein (Homo sapiens, UniProt Q12884).
T2 construct: purchased Acrobiosystems FAP-H82Q6
T2 sequence (Q12884 1-760): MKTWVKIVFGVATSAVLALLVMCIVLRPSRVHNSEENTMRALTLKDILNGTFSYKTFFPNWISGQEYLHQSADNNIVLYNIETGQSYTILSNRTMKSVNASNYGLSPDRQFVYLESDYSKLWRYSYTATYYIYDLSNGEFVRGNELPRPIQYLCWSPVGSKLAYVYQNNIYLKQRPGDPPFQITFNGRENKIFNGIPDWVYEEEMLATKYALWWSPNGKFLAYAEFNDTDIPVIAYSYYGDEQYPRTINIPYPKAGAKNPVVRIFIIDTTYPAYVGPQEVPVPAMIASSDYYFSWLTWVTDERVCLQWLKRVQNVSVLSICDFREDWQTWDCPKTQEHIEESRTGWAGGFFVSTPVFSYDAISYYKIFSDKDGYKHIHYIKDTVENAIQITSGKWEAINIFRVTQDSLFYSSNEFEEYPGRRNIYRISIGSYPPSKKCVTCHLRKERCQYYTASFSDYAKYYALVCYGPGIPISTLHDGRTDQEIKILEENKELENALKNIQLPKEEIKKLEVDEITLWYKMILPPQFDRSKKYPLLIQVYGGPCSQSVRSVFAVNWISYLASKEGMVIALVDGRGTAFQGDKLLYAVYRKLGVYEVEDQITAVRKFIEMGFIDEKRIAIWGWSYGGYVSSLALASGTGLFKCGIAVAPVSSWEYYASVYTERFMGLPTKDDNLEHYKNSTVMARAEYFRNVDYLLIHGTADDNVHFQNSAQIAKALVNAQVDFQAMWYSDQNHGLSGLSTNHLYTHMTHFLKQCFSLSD
As to the kind of experiment: Inhibitory activity against FAP protease activity (Z-Gly-Pro-AMC fluorescence). In kind it is biochemical. The settings on record: 125 pM FAP working solution, 90 min at room temperature; read-out: FAP IC50. The gist of the method:
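Working solutions of 125 pM recombinant human FAP and 150 µM Z-Gly-Pro-AMC, in pH 7.5 Tris buffer with 1 M NaCl and 1 mg/mL BSA, combined with 4-fold compound dilutions and reacted 90 min at room temperature in the dark. AMC fluorescence (Ex 380/Em 460 nm) used to fit IC50.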

Data set [4] deals with T3, human recombinant PREP protein (Homo sapiens, UniProt P48147).
T3 construct: purchased R&D systems 4308-SE-010
T3 sequence (P48147 1-710): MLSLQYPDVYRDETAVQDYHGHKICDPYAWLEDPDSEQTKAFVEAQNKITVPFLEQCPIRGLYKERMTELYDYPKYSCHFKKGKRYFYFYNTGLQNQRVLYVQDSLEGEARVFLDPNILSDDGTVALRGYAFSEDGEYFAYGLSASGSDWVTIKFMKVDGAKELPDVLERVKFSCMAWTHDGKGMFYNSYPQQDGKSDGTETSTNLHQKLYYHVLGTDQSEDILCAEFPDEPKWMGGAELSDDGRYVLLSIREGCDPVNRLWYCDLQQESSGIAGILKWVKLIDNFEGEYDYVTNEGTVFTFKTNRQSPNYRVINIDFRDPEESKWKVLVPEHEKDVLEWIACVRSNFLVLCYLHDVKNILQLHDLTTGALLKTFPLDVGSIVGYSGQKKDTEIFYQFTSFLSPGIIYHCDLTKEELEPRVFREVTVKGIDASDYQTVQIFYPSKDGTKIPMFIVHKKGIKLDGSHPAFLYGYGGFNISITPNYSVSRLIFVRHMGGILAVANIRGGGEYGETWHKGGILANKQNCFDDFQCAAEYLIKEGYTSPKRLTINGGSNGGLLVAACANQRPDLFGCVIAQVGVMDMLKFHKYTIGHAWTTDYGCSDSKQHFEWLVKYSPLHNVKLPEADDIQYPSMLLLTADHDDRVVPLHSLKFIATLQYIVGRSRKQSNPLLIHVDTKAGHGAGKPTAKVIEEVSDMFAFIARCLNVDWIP
Nature of the data set: Inhibitory activity against PREP protease activity, reported as PREP/FAP IC50 ratio. In kind it is biochemical. The settings on record: ratio of PREP IC50 to FAP IC50. As to the method:
The human recombinant PREP protein (R&D systems, 4308-SE-010) was formulated into a 125 pM working solution with a assay buffer (25 mM Tris-HCl, 250 mM NaCl, 2.5 mM DTT, 1 mg/mL BSA), and the PREP substrate (Z-Gly-Pro-AMC (LEONBIO, 68542-93-8)) was diluted to a 125 µM PREP substrate working solution with the assay buffer. 40 µl of PREP working solution and 20 µl of compounds at different concentrations (4-fold dilution) were taken, then 40 µl of PREP substrate working solution was added, and the mixture was uniformly mixed on a shaker at room temperature for 1 min. The uniformly mixed mixture was reacted at room temperature in the dark for 90 min. Reading was made by microplate reader at excitation and emission wavelengths of 380 nm and 460 nm. The original data was saved, and the IC50 value of the compound was obtained by analyzing the data with Graphpad PRISM.

In data set [5] the test system is HEK293-FAP cells. Nature of the data set: Distribution in tissues of HEK293-FAP tumor-bearing mice (gamma counter). It is filed as in vivo, SCID mice. The settings on record: mouse, in vivo. As to the method:
(§1) Male SCID mice (6-8 weeks old) were subcutaneously inoculated with 5 × 10^6 HEK293-FAP cells (FAP was highly expressed in HEK293 cells). 10 days later, 30 mice with tumor size of 200-300 mm^3 were randomly divided into 3 groups. Each mouse in the 3 groups was administered with compound ^177Lu-3BP-3554, compound 29 and compound 30 with a radiation dose of 100 µCi, respectively. Blood, kidney and tumor tissues were collected at time points of 4 h, 8 h, 24 h, 72 h and 168 h, and all blood samples and tissue samples were measured for radioactive counts by gamma counter.

Assay in data set [6]: as above
It is filed as in vivo, SCID mice. The settings on record: male, SCID, mouse, in vivo, 100 uCi, total radioactivity. As to the method: as §1

pIC50: −log10 of the molar value. Structures can show the parent of a compound that is named as a salt. Numbered stars: 1 amine (or outer) side, 2 acyl side, 3 side chain; on linkers, the order of the positions; unused ones are H or OH. Bridge positions count the residues as written; N and C are the ends. Square brackets hold non-standard residues; d marks the D form. Peptide text beside a SMILES is read from it. * marks the point of attachment. TBMB(SCH2CH2NH-DOTA) = O=C(O)CN1CCN(CC(=O)O)CCN(CC(=O)NCCSCc2cc(C[*:1])cc(C[*:2])c2)CCN(CC(=O)O)CC1; 1Nal = N[C@@H](Cc1cccc2ccccc12)C(=O)O; β3hC = N[C@@H](CS)CC(=O)O; Hexanoyl = CCCCCC(=O)*

T1 sequence (P27487 whole entry): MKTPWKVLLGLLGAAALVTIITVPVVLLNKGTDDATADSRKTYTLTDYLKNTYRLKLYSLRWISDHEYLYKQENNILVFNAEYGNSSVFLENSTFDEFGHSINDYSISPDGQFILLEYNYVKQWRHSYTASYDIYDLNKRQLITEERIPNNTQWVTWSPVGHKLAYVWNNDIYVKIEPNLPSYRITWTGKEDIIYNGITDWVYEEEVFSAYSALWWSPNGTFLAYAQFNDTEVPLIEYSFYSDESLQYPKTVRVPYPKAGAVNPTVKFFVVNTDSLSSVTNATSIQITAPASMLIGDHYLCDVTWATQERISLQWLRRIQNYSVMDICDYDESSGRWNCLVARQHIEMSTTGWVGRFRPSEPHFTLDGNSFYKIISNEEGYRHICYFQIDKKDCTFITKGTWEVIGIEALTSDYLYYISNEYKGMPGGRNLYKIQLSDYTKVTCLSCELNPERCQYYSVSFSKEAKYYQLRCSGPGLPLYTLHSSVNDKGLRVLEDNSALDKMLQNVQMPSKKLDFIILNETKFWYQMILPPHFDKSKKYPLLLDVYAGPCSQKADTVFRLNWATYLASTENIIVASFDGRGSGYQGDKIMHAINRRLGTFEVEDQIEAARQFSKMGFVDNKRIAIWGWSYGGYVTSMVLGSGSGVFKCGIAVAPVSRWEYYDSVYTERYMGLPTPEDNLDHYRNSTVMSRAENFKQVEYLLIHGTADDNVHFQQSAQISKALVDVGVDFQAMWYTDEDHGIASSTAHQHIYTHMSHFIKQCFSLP

As to `CCCCCC(=O)N[C@H]1CSCc2cc(CSCCNC(=O)CN3CCN(CC(=O)O)CCN(CC(=O)O)CCN(CC(=O)O)CC3)cc(c2)CSC[C@@H](C(=O)O)NC(=O)[C@H](Cc2ccccc2)NC(=O)[C@H](CCC(N)=O)NC(=O)[C@H]([C@@H](C)O)NC(=O)[C@@H]2CCCN2C(=O)[C@@H]2CCCN2C1=O` [Compound 3BP-3554, reference compound], the negative logarithm of the IC50 (pIC50) (usually the IC50 on a negative log10 scale, so that one unit is a factor of ten) in data set [1] is under 5.00. Also, the fraction remaining (as a rule, what is left of the initial amount, in per cent) at 24 h, 10 µM in data set [2] was 87%.
`CCCCCC(=O)N[C@H]1CSCc2cc(CSCCNC(=O)CN3CCN(CC(=O)O)CCN(CC(=O)O)CCN(CC(=O)O)CC3)cc(c2)CSC[C@@H](CC(=O)O)NC(=O)[C@H](Cc2cccc3ccccc23)NC(=O)[C@H](CCC(N)=O)NC(=O)[C@H]([C@@H](C)O)NC(=O)[C@@H]2CCCN2C(=O)[C@@H]2CCCN2C1=O` [Compound 11, Hex-Cys-Pro-Pro-Thr-Gln-1Nal-beta-HomoCys (Cys bridge TBMB (DOTA-AET)) trifluoroacetate] (Hexanoyl-CPPTQ[1Nal][β3hC]-OH; linker 1-7 via TBMB(SCH2CH2NH-DOTA)): the results for the pIC50 in data set [3] and in data set [1] were 9.59 and under 5.00, respectively. For the same molecule, the share remaining at 24 h, 10 µM in data set [2] came out at 94%.
As for `CCCCCC(=O)N[C@H]1CSCc2cc(CSCCNC(=O)CN3CCN(CC(=O)O)CCN(CC(=O)O)CCN(CC(=O)O)CC3)cc(c2)CSC[C@@H](CC(=O)O)NC(=O)[C@H](Cc2ccccc2C(F)(F)F)NC(=O)[C@H](CCC(N)=O)NC(=O)[C@H]([C@@H](C)O)NC(=O)[C@@H]2CCCN2C(=O)[C@@H]2CCCN2C1=O` [Compound 12, Hex-Cys-Pro-Pro-Thr-Gln- Phe(2-CF3)-beta-HomoCys (Cys bridge TBMB (DOTA-AET)) trifluoroacetate], the pIC50 in data set [3] is 9.34; in data set [1] it was under 5.00. For the same molecule, in data set [4], the PREP/FAP entry is “A (A > 10000)”. Besides, in data set [2], the amount remaining at 24 h, 10 µM was found to be 94%.
Take `CCCCCC(=O)N[C@H]1CSCc2cc(CSCCNC(=O)CN3CCN(CC(=O)O)CCN(CC(=O)O)CCN(CC(=O)O)CC3)cc(c2)CSC[C@@H](CC(=O)N[C@@H](Cc2ccc3ccccc3c2)C(=O)O)NC(=O)[C@H](Cc2ccccc2)NC(=O)[C@H](CCC(N)=O)NC(=O)[C@H]([C@@H](C)O)NC(=O)[C@@H]2CCCN2C(=O)[C@@H]2CCCN2C1=O` [Compound 13, Hex-Cys-Pro-Pro-Thr-Gln-Phe-beta-HomoCys-2Nal (Cys bridge TBMB (DOTA-AET)) trifluoroacetate]: the pIC50 in data set [3] is 9.01; in data set [1], under 5.00. In data set [2], this molecule had a share remaining at 24 h, 10 µM of 100%.
Regarding `CCCCCC(=O)N[C@H]1CSCc2cc(CSCCNC(=O)CN3CCN(CC(=O)O)CCN(CC(=O)O)CCN(CC(=O)O)CC3)cc(c2)CSC[C@@H](CC(=O)O)NC(=O)[C@H](Cc2cccc3ccccc23)NC(=O)[C@H](CCC(N)=O)NC(=O)[C@H]([C@@H](C)O)NC(=O)[C@@H]2CCCN2C(=O)[C@@H]2CCCN2C1=O` [Compound 29] (Hexanoyl-CPPTQ[1Nal][β3hC]-OH; linker 1-7 via TBMB(SCH2CH2NH-DOTA)), in data set [5], the “injection dose%/g tissue at different time points” value was “significantly higher than that of ^177Lu-3BP-3554”; the “tissue selectivity for kidney and blood tissues” value was “better tissue selectivity for kidney and blood tissues than ^177Lu-3BP-3554”. For the same molecule, in data set [6] (Tumor/blood), the tissue to tissue ratio at 4 h came out at 26.2, the tissue to tissue ratio at 8 h was found to be 70.1, the tissue to tissue ratio at 24 h was found to be 1630 and the tissue to tissue ratio at 72 h was 2410. The tissue to tissue ratio at 168 h in data set [6] (Tumor/blood) was determined as 1160. For the same molecule, in data set [6] (Tumor/kidney), the tissue to tissue ratio at 4 h was 2.32, the tissue to tissue ratio at 8 h stood at 3.18, the tissue to tissue ratio at 24 h came out at 3.99 and the tissue to tissue ratio at 72 h turned out to be 7.12. For the same molecule, in data set [6] (Tumor/kidney), the tissue to tissue ratio at 168 h was found to be 27.6.
On to `CCCCCC(=O)N[C@H]1CSCc2cccc(c2F)CSC[C@@H](CNC(=O)C[C@@H](C)NC(=O)[C@H]2CC[C@H](CNC(=O)CN3CCN(CC(=O)O)CCN(CC(=O)O)CCN(CC(=O)O)CC3)CC2)NC(=O)[C@H](Cc2ccccc2)NC(=O)[C@H](CCC(N)=O)NC(=O)[C@H]([C@@H](C)O)NC(=O)[C@@H]2CCCN2C(=O)[C@@H]2CCCN2C1=O` [Compound 30], for which, in data set [5], the “injection dose%/g tissue at different time points” value was “significantly higher than that of ^177Lu-3BP-3554”; the “tissue selectivity for kidney and blood tissues” value was “better tissue selectivity for kidney and blood tissues than ^177Lu-3BP-3554”. Moreover, in data set [6] (Tumor/blood), the tissue to tissue ratio at 4 h worked out at 16.3, the tissue to tissue ratio at 8 h is 32.3, the tissue to tissue ratio at 24 h was determined as 212 and the tissue to tissue ratio at 72 h was found to be 1100. Moreover, the tissue to tissue ratio at 168 h in data set [6] (Tumor/blood) was determined as 484. In data set [6] (Tumor/kidney), the tissue to tissue ratio at 4 h came out at 6.88, the tissue to tissue ratio at 8 h was 5.56, the tissue to tissue ratio at 24 h is 5.95 and the tissue to tissue ratio at 72 h was 6.98. In data set [6] (Tumor/kidney), the tissue to tissue ratio at 168 h worked out at 11.8.
On to “Hex-Cys-Pro-Pro-Thr-Gln-Phe-Cys-CH2NH-cyclopentacarboxylic acid (Cys bridge TBMB (DOTA-AET)) trifluoroacetate [Compound 14]”, for which the PREP/FAP result in data set [4] is on record as “B (10000 > B > 3300)”.
With “Hex-Cys-Pro-Pro-Thr-Gln-Phe-Cys-CH2NHAc (Cys bridge TBMB (DOTA-AET)) trifluoroacetate [Compound 10]”, the PREP/FAP result in data set [4] was “A (A > 10000)”.
